# Results from US20140171436A1, “TREATMENT OF ANTIFOLATE NEUROTOXICITY” (Syntrix Biosystems, Inc., priority 2003, published 2014).
# Where “and” joins values, the source holds several entries; their conditions need not be identical. Equal values may be shown once.
# Columns and labels:
# [1] = test system: patients with AF-NT (MTX neurotoxicity); assay: Patients with AF-NT treated with oral dextromethorphan; assay type: in vivo, human
# Source text: For example, the intensity, duration and frequency of neurological symptoms such as seizure, paralysis, nystagmus, ataxia, dysarthria, aphasia cranial nerve palsy, asthenia can be readily determined by clinical evaluation. A variety of validated grading methods are available to assess such symptoms. As used herein, useful strategies for grading such objective AF-NT symptoms include time to initial response, time to resolution of all symptoms, and a grade (1-3) of the rate of symptom resolution for the majority of all AF-NT symptoms. In this grading system, a grade 1 is where symptoms resolve gradually or linearly over an extended period exceeding 96 hours, a grade 2 is where the majority of symptoms resolve in 25 to 96 hours), and a grade 3 is where the majority of symptoms resolve in 24 hours or less: the greater the grade, the greater degree of symptom improvement. Physical deficits that can be objectively assessed generally appear in patients with moderate- to high-dose exposure to antifolate.
# The mean grade of symptom resolution for untreated patients was 1.4±0.2 (mean±SEM), while the mean grade of symptom resolution for treated patients was 2.3±0.2 (mean±SEM).
# sigma-1 receptor = sigma-1 receptor (Homo sapiens, UniProt Q99720); settings: cited from earlier work; for Ki: read-out: sigma-1 affinity Ki
# sigma-2 = sigma-2 (Homo sapiens, UniProt Q5BJF2); settings: read-out: Ki sigma-2; cited from earlier work
# [2] = frequent and massive doses as large as 3300 mg/day; cited from earlier work
# NMDA receptor = settings: read-out: Ki NMDAR; cited from earlier work
# [3] = in vivo; cited from earlier work
# [4] = Example 1: NHL, 32 M, MTX 12 mg IT, oral DM 1 mg/kg once
# [5] = Example 2: ALL, 15 M, MTX 12 mg IT and 100 mg/m^2 IV, oral DM 2 mg/kg × 1
# [6] = Example 3: ALL, 19 M, MTX 7.5 mg IO and 1 g/m^2 IV, oral DM 1 mg/kg TID
# [7] = Example 4: OS, 13 M, MTX 12 g/m^2 IV, oral DM 1 mg/kg TID
# [8] = Example 4, DM 1 mg/kg three times on a single day
# [9] = Example 5: OS, 16 M, MTX 12 g/m^2 IV, oral DM 1 mg/kg × 1
# [10] = Example 6: ALL, 18 F, MTX 12 mg IT, oral DM 1 mg/kg BID
# [11] = Example 7: ALL, 6 F, MTX 12 mg IT, oral DM 1 mg/kg BID × 3
# [12] = Example 8: ALL, 9 F, MTX 12 mg IT, oral DM 1 mg/kg BID
# [13] = Example 9: ALL, 14 M, IV and IT MTX, oral DM 1 mg/kg TID
# [14] = Example 10: ALL, 8 F, MTX 12 mg IT, oral DM 1 mg/kg BID
# [15] = Example 11: ALL, 15 F, MTX 12 mg IT, oral DM 1 mg/kg BID
# [16] = Example 12: ALL, 5 M, IV and IT MTX, oral DM 1 mg/kg TID
# [17] = Example 13: ALL, 13 M, MTX 12 mg IT, oral DM 1 mg/kg BID
# [18] = Example 14: ALL, 14 F, MTX 12 mg IT, oral DM 1 mg/kg BID
# [19] = Example 15: ALL, 13 F, MTX 12 mg IT, oral DM 1.5 mg/kg BID × 6
# [20] = Example 16: ALL, 6 M, MTX 12 mg IT, oral DM 1 mg/kg BID × 5
# Chain of sigma-1 receptor (Q99720 whole entry, species assumed): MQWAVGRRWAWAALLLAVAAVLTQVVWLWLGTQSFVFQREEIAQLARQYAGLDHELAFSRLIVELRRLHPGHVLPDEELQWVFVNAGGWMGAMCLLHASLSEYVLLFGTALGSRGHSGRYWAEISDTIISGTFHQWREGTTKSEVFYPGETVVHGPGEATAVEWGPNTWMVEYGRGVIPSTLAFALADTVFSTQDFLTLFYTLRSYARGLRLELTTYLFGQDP
# Chain of sigma-2 (Q5BJF2 whole entry): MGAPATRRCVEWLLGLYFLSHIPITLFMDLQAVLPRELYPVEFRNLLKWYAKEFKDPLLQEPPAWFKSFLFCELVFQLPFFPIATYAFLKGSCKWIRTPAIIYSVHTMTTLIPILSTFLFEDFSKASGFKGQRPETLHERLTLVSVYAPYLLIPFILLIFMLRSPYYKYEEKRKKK
structure (smiles),measurement,setting,value
"COc1ccc2c(c1)[C@@]13CCCC[C@H]1[C@@H](C2)N(C)CC3 [dextromethorphan, (+)-3-methoxy-N-methylmorphinan]",Grade (1-3) of symptom resolution,[1]; [4],3 (3 = rapid (majority of symptoms resolved in 24 hours or less))
same,Time to initial response,[1]; [4],3 h
same,Time to resolution of all symptoms,[1]; [4],24 h
same,Grade (1-3) of symptom resolution,[1]; [5],3 (3 = rapid (majority of symptoms resolved in 24 hours or less))
same,Time to initial response,[1]; [5],0.50 h
same,Time to resolution of all symptoms,[1]; [5],6 h
same,duration of symptoms,"[1]; Example 3, text, DM 1 mg/kg three times on a single day",10 days
same,Grade (1-3) of symptom resolution,[1]; [6],1 (1 = gradual (symptoms resolved gradually or linearly over an extended period exceeding 96 hours))
same,Time to initial response,[1]; [6],3 h
same,Time to resolution of all symptoms,[1]; [6],240 h
same,Grade (1-3) of symptom resolution,[1]; [7],2 (2 = moderate (majority of symptoms resolved in 25 to 96 hours))
same,Time to initial response,[1]; [7],0.75 h
same,Time to resolution of all symptoms,[1]; [7],72 h
same,duration of symptoms,[1]; [8],3 days
same,time until symptoms began to improve,[1]; [8],45 min
same,duration of symptoms,"[1]; Example 5, text, DM 1 mg/kg once",0.0208 days
same,Grade (1-3) of symptom resolution,[1]; [9],3 (3 = rapid (majority of symptoms resolved in 24 hours or less))
same,Time to initial response,[1]; [9],0.50 h
same,Time to resolution of all symptoms,[1]; [9],0.50 h
same,persistent confusion,"[1]; Example 6, text, DM 1 mg/kg po BID",8 days
same,Grade (1-3) of symptom resolution,[1]; [10],2 (2 = moderate (majority of symptoms resolved in 25 to 96 hours))
same,Time to initial response,[1]; [10],24 h
same,Time to resolution of all symptoms,[1]; [10],192 h
same,Grade (1-3) of symptom resolution,[1]; [11],3 (3 = rapid (majority of symptoms resolved in 24 hours or less))
same,Time to initial response,[1]; [11],4 h
same,Grade (1-3) of symptom resolution,[1]; [12],2 (2 = moderate (majority of symptoms resolved in 25 to 96 hours))
same,Time to initial response,[1]; [12],2 h
same,Grade (1-3) of symptom resolution,[1]; [13],3 (3 = rapid (majority of symptoms resolved in 24 hours or less))
same,Time to initial response,[1]; [13],2 h
same,Time to resolution of all symptoms,[1]; [13],3 h
same,time to complete resolution,"[1]; Example 10, text, DM 1 mg/kg po BID for 24 hours",5 days
same,Grade (1-3) of symptom resolution,[1]; [14],2 (2 = moderate (majority of symptoms resolved in 25 to 96 hours))
same,Time to resolution of all symptoms,[1]; [14],120 h
same,time until back to baseline,"[1]; Example 11, text, DM 1 mg/kg po BID",8 days
same,Grade (1-3) of symptom resolution,[1]; [15],3 (3 = rapid (majority of symptoms resolved in 24 hours or less))
same,Time to initial response,[1]; [15],24 h
same,Time to resolution of all symptoms,[1]; [15],192 h
same,Grade (1-3) of symptom resolution,[1]; [16],3 (3 = rapid (majority of symptoms resolved in 24 hours or less))
same,Time to initial response,[1]; [16],24 h
same,Time to resolution of all symptoms,[1]; [16],24 h
same,Grade (1-3) of symptom resolution,[1]; [17],3 (3 = rapid (majority of symptoms resolved in 24 hours or less))
same,Time to initial response,[1]; [17],24 h
same,Time to resolution of all symptoms,[1]; [17],24 h
same,time until able to speak,"[1]; Example 14, text, DM 1 mg po BID by nasogastric tube",9 days
same,Grade (1-3) of symptom resolution,[1]; [18],1 (1 = gradual (symptoms resolved gradually or linearly over an extended period exceeding 96 hours))
same,Time to initial response,[1]; [18],216 h
same,Time to resolution of all symptoms,[1]; [18],>1000 h
same,Grade (1-3) of symptom resolution,[1]; [19],1 (1 = gradual (symptoms resolved gradually or linearly over an extended period exceeding 96 hours))
same,Time to resolution of all symptoms,[1]; [19],>1000 h
same,time to complete resolution,"[1]; Example 16, text, DM 1 mg/kg po BID for 5 days",about 5 days
same,Grade (1-3) of symptom resolution,[1]; [20],1 (1 = gradual (symptoms resolved gradually or linearly over an extended period exceeding 96 hours)) and 2 (2 = moderate (majority of symptoms resolved in 25 to 96 hours))
same,Time to initial response,[1]; [20],24 to 48 h and 24 h
same,Time to resolution of all symptoms,[1]; [20],120 h
same,mean grade of symptom resolution (mean±SEM),"[1]; treated patients, Examples 1-16, P 0.0042 vs untreated, unpaired t test",2.3±0.2
same,Kd,sigma-1 receptor; read-out: sigma-1 affinity Kd,20 nM
same,Ki,sigma-1 receptor,205 nM and 210 nM
same,Ki,sigma-2,4000 to 11000 nM
same,side-effects,[2],unacceptable PCP-like side-effects
CC12CC3CC(C)(C1)CC(N)(C3)C2 [memantine],Ki,NMDA receptor,500 nM
same,Ki,sigma-1 receptor,2600 nM
same,mean CSF/serum ratio,[3],0.52
